According to patent US20240336573A1, “COMPOUND FOR THE TREATMENT AND PROPHYLAXIS OF INFECTIOUS DISEASES” (Eberhard Karls Universität Tübingen Medizinische Fakultät, priority 2021, published 2024):

Legend:
[1] = molecular target: SurA (Escherichia coli, UniProt P0ABZ6); assay: Luciferase-based SurA activity assay (primary assay, in-house); type: biochemical, E. coli; settings: n/d: no signal detected; for Primary Assay ICmax: QHL-10 derivatives, dose response up to 125 μM; for Primary Assay Amplitude: amplitude of signal
Description: The biological function of SurA is to bind and to keep outer membrane proteins that have reached the periplasm in an unfolded but folding-competent state. The inventors' assay is based on this interaction and uses firefly Luciferase (fLuc) as a non-native substrate. […] This is exploited in the assay (FIG. 3). The loss of tertiary structure of fLuc leads to the exposure of binding sites for SurA. It is known that SurA binds selectively to a special group of substrates. These substrates have in common the specific patterns of hydrophobic amino acids that are highly enriched in the beta strands of integral outer membrane proteins. These motifs are present in OMPs of all Gram-negative bacteria and in fLuc as well. Upon mild heat treatment of fLuc and its subsequent partial unfolding, fLuc is accepted as a substrate by SurA. Of note, these intermediates served as reporter substrates to determine the activity of a […] folding chaperone. […] This interaction remains stable upon temperature reduction. Next, the temperature of the assay is reduced to room temperature and luciferase activity is subsequently measured by addition of Luciferin and ATP. In conditions without SurA, fLuc will refold into its active conformation resulting in a luminescence signal.
In short, the Luciferase based SurA activity assay was performed in SurA Activity Assay Buffer (40 mM HEPES pH 7.4, 20 mM MgSO4, 0.5 g/I BSA). SurA aliquots were thawn at RT, activated by mild heat treatment and cooled down to RT for 10 min. […] Solution A containing 10 mM ATP as well as 0.3 mM Luciferin (Promega Beetle Luciferin, Potassium Salt) in water was prepared. Luciferase working solution was prepared by diluting 1 ml Luciferase working stock (100 nM) with 9 ml assay buffer. 33 μl of the protein solution were added to every 2nd row of a well of a 384-well PS, white, flat bottom plate. […] Subsequently, 2 μl of compound in DMSO were added in quadruplicates (4 wells each of protein solution and buffer controls). These compound solutions could contain either various compounds or different dilutions of the same compound allowing screening inhibitor activity in a dose dependent manner. After compound addition, plates were incubated 15 min at RT. After this incubation, 5 μl of Luciferase working solution were added to each well. Next, the plates were incubated 25 min at 38° C. to partially unfold the Luciferase. Subsequently, the assay plate was cooled for 5 min at 4° C. followed by 10 min incubation at RT prior to luminescence measurement. Luminescence was measured in a TECAN infinite M200 pro plate reader for each well individually after injection of 10 μl Solution A.

[2] = tested on: E. coli BW25113, E. coli JW2496-3, E. coli ATCC 25922; assay: Minimal inhibitory concentration assay (bactericidal/bacteriostatic assessment); type: cell-based; settings: dilution series 100-1.7 μM
Description: The intended effect of a SurA inhibitor should be the induction of a disturbance of the outer membrane composition resulting in an increased susceptibility to antibiotic treatment. Of note, Vancomycin is typically not used to treat infections with Gram-negative bacteria, because it is excluded by the OM and not efficient at concentrations that could be achieved in patients. However, at appropriate dosing in vitro it can be used to detect outer membrane defects. For determining a potential sensitizing effect of Vancomycin treatment, the inventors first tested whether the compounds at hand were bactericidal per se. Therefore, the inventors performed a minimal inhibitory concentration (MIC) assay. To this end, 5 ml overnight cultures of E. coli BW25113 (Keio-Collection reference strain), E. coli JW2496-3 (Keio-Collection single gene knockout for bamB, which suffers from decreased outer membrane integrity) and E. coli ATCC 25922 (a reference strain recommended for antibiotic susceptibility testing) were grown in Mueller Hinton Broth, Cation adjusted (MHB-II). The next day, the OD was adjusted to obtain 1*10^8 CFU/ml using fresh MHB-II. Next, this bacterial solution was diluted 1:100 into 20 ml fresh MHB-II. 50 μl of this bacteria solution were then transferred into each well of a 96-well plate prefilled with 50 μl MHB-II supplemented with the desired compounds. The test plates for the bactericidal assessment contained dilution series of the compounds from 100-1.7 μM. Plates were sealed with a gas permeable membrane and incubated o/n at 37° C. in a humid chamber without shaking. After o/n incubation, bacterial growth was quantified by measuring the optical density at 600 nm wavelength in a multiplate reader. Compounds showing no growth inhibition at 100 μM were considered non-bactericidal. Of note, the bactericidal effect of Vancomycin was assessed similarly for each test strain using Vancomycin concentrations ranging from […]. This was done to identify a Vancomycin concentration at which the strains just managed to survive.

[3] = tested on: E. coli JW2496-3; assay: Sensitizer MIC assay (vancomycin); type: cell-based; settings: 100 μM compound, more susceptible strain
Protocol: (§1) To test for the sensitizer properties of the compounds, the inventors then performed a sensitizer MIC assay. To this end, E. coli BW25113, E. coli JW2496-3, and E. coli ATCC 25922 inocula were prepared as described above. Each well of a 96-well plate was prefilled with a fixed compound concentration of 100 μM and a dilution series of Vancomycin ranging from […]. A sensitizing effect was defined as reduction of the MIC value of Vancomycin of the respective test strain.

[4] = tested on: E. coli ATCC 25922; assay: Sensitizer MIC assay (vancomycin); type: cell-based; settings: vancomycin; 100 μM compound; type strain
Protocol: as §1

[5] = tested on: E. coli BW25113; assay: Sensitizer MIC assay (vancomycin); type: cell-based; settings: 100 μM compound, wildtype strain
Protocol: as §1

Sequence of SurA (P0ABZ6 21-428): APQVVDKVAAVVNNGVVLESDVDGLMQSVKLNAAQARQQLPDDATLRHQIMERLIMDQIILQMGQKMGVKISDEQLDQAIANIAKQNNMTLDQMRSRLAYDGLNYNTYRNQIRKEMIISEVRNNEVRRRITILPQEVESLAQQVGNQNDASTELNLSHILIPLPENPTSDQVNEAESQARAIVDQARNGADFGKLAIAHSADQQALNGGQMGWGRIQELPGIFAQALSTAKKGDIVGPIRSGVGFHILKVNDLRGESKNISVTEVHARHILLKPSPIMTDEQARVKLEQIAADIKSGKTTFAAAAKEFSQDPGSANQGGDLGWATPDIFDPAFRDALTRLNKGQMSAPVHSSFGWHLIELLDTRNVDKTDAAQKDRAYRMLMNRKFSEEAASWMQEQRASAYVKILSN

Structure (SMILES) | Primary Assay ICmax [1] [µM] | Primary Assay Amplitude [1] | Bacteriostatic MIC Assay Result [2] | Sensitizer MIC Assay (log2-fold reduction of MIC in presence of compound) JW2496-3 [3] | Sensitizer MIC Assay (log2-fold reduction of MIC in presence of compound) ATCC25922 [4] [log2-fold] | Sensitizer MIC Assay (log2-fold reduction of MIC in presence of compound) BW25113 [5] [log2-fold]
COc1ccc(Cc2nc(C(N)=O)c(NC(=O)c3ccc(-c4ccccc4)cc3)[nH]2)cc1 [Compound 1f, 5-([1,1′-biphenyl]-4-carboxamido)-2-(4-methoxybenzyl)-1H-imidazole-4-carboxamide] | 16 | high | slightly | – | – | –
CCOc1ccc2ccccc2c1C(=O)Nc1[nH]c(-c2ccccc2O)nc1C(N)=O [Compound 3f, 5-(2-ethoxy-1-naphthamido)-2-(2-hydroxyphenyl)-1H-imidazole-4-carboxamide] | 16 | low | non-bacteriostatic | 2 log2-fold | 1 | 1
CCOc1ccc2ccccc2c1C(=O)Nc1[nH]c(-c2ccc(F)c(N)c2)nc1C(N)=O [Compound 3g, 2-(3-amino-4-fluorophenyl)-5-(2-ethoxy-1-naphthamido)-1H-imidazole-4-carboxamide] | 64 | low | non-bacteriostatic | 0 log2-fold | 0 | 0
NC(=O)c1nc(-c2ccccc2O)[nH]c1NC(=O)Cc1cccc2ccccc12 [Compound 3j, 2-(2-hydroxyphenyl)-5-(2-(naphthalen-1-yl)acetamido)-1H-imidazole-4-carboxamide] | – | – | non-bacteriostatic | 1-4 log2-fold | 1 | 0
NC(=O)c1nc(Cc2ccc(OCC(=O)O)cc2)[nH]c1NC(=O)c1cccc(-c2ccccc2)c1 [Compound 2b, 2-(4-((5-([1,1′-biphenyl]-3-carboxamido)-4-carbamoyl-1H-imidazol-2-yl)methyl)phenoxy)acetic acid] | 64 | low | non-bacteriostatic | 0 log2-fold | 0 | 0
NC(=O)c1nc(-c2ccc(F)c(N)c2)[nH]c1NC(=O)Cc1cccc2ccccc12 [Compound 3k, 2-(3-amino-4-fluorophenyl)-5-(2-(naphthalen-1-yl)acetamido)-1H-imidazole-4-carboxamide] | – | – | non-bacteriostatic | 0 log2-fold | 0 | 0
NC(=O)c1nc(Cc2ccc(OCC(=O)O)cc2)[nH]c1NC(=O)c1ccccc1-c1ccccc1 [Compound 2c, 2-(4-((5-([1,1′-biphenyl]-2-carboxamido)-4-carbamoyl-1H-imidazol-2-yl)methyl)phenoxy)acetic acid] | – | – | non-bacteriostatic | 0 log2-fold | 0 | 0
NC(=O)c1nc(Cc2ccc(OCc3ccccc3)cc2)[nH]c1NC(=O)c1ccc(-c2ccccc2)cc1 [Compound 1d, 5-([1,1′-biphenyl]-4-carboxamido)-2-(4-(benzyloxy)benzyl)-1H-imidazole-4-carboxamide] | 32 | low | non-bacteriostatic | 0 log2-fold | 0 | 0
CCOC(=O)COc1ccc(Cc2nc(C(N)=O)c(NC(=O)c3cccc(-c4ccccc4)c3)[nH]2)cc1 [Compound 1b, Ethyl 2-(4-((5-([1,1′-biphenyl]-3-carboxamido)-4-carbamoyl-1H-imidazol-2-yl)methyl)phenoxy)acetate] | – | – | non-bacteriostatic | – | – | –
NC(=O)c1nc(-c2cc(F)c(F)c(F)c2)[nH]c1NC(=O)c1ccccc1OCc1ccccc1 [Compound 3p, 5-(2-(benzyloxy)benzamido)-2-(3,4,5-trifluorophenyl)-1H-imidazole-4-carboxamide] | – | – | slightly | – | – | –
NC(=O)c1nc(Cc2ccc(O)cc2)[nH]c1NC(=O)c1ccc(-c2ccccc2)cc1 [Compound 2d, 5-([1,1′-biphenyl]-4-carboxamido)-2-(4-hydroxybenzyl)-1H-imidazole-4-carboxamide] | 16 | high | non-bacteriostatic | – | – | –
NC(=O)c1nc(-c2cccc(N)c2)[nH]c1NC(=O)Cc1cccc2ccccc12 [Compound 3i, 2-(3-aminophenyl)-5-(2-(naphthalen-1-yl)acetamido)-1H-imidazole-4-carboxamide] | – | – | non-bacteriostatic | – | – | –
